These results are taken from patent publication US7745402B2, “Method of treating pancreatitis” (Lundbeck Inc., priority 2005, dated 2010).

Type in all cases: in vivo, mice
Experiment [1] has as its system HO-2. Put plainly: HO-2 immunoblot of mouse tissue homogenates after hemin. As to conditions: any of the tissues; hemin 3× during 7 d.
Experiment [2] deals with HO-1^+ pancreatic macrophages. The experiment is described as follows: Staining of pancreatic macrophages (HO-1, F4/80) after hemin. The conditions noted are these: intraperitoneal hemin. As to the method: FIG. 3: Hemin increases HO-1^+ pancreatic macrophages in association with MCP-1 and MIP-1α induction. (A) Pancreas from CDD-fed mice was triple-stained using antibodies to HO-1 (a), the macrophage marker F4/80 (b), and the granulocyte marker Gr-1 (c). Scale bar in panel d=20 μM. (B) Mice were treated intraperitoneally with hemin (H) or vehicle (V) once (H×1) or 3×(H×3, V×3) during a one week period, followed by feeding with CDD or regular chow for 3 d. Pancreata were collected followed by staining and counting F4/80^+ macrophages in 10 randomly selected high power fields (HPF). The mean±SD (3 mice/group) and p-value for the indicated comparisons are shown. […]
(§1) Animal procedures. […] Immunofluorescence staining was performed as described (29) and images were analyzed using confocal microscopy. Total tissue lysates were prepared by homogenization in Laemmli sample buffer and analyzed by SDS-PAGE followed by transfer to membranes for blotting and protein visualization by enhanced chemiluminescence. Trypsin activity was determined using a fluorimetric assay and the substrate Boc-Gln-Ala-Arg-MCA (Peptides International Inc.; Louisville, Ky.), and comparison to a standard curve generated with purified trypsin as described. […] Lung injury after caerulein administration was assessed as previously described, based on neutrophilic infiltration, pulmonary edema, alveolar distension and collapse. […]

Experiment [3] has as its system HO-1. Put plainly: Double-staining of pancreas for HO-1 and cell markers after hemin and CDD. As to conditions: hemin pretreatment, 3 days of CDD.
Source text: Pancreata of mice pretreated with hemin followed by 3 days of CDD feeding were isolated, sectioned, then double-stained using antibodies to HO-1 (a, d and g) and keratin polypeptide 8 (epithelial marker, b), vimentin (mesenchymal marker, e) or MJ7/18 (endothelial marker, h). Merging of the indicated images is shown in the right panels. Scale bar in panel i=20 μm. HO-1 staining of pancreas from mice treated with vehicle alone (without CDD) afforded background staining (inset of panel a).
as §1, with “procedures. Mice were euthanized by CO2 inhalation then pancreata and lungs were rapidly removed, divided into 3-4 pieces, and blood was collected by intracardiac puncture.” for “procedures.”

For the substance Hemin, in experiment [1], the HO-2 levels entry is “did not change”. For the same substance, the “HO-1^+ pancreatic macrophages” value in experiment [2] was “increases”. Moreover, the “cell type of pancreatic HO-1 induction” value in experiment [3] was “occurs in non-epithelial cells”.
